According to ChEMBL document CHEMBL1773045, “Conjugate (MTC-220) of muramyl dipeptide analogue and paclitaxel prevents both tumor growth and metastasis in mice” (J Med Chem, 2011):
The source made the active and inactive calls. No cut-off for these calls is given here.

Columns and labels:
MDA-MB-231 [1] = assay: Antitumor activity against human MDA-MB-231 cells xenografted in nu/nu BALB/c mouse assessed as tumor growth inhibition at 20 mg/kg, ip qd for 24 days measured on day 25 relative to control; format: functional; conditions: MDA-MB-231, ip, route intraperitoneal, read-out: GI
MDA-MB-231 [2] = assay: Antitumor activity against human MDA-MB-231 cells xenografted in nu/nu BALB/c mouse assessed as tumor growth inhibition at 30 mg/kg, ip qd for 12 days measured on day 25 relative to control; format: functional; conditions: MDA-MB-231, ip, route intraperitoneal, read-out: GI
[3] = Antitumor activity against human ES2 cells xenografted in nu/nu BALB/c mouse assessed as tumor growth inhibition at 30 mg/kg, ip qd for 12 days measured on day 21 relative to control; format: functional; conditions: ES-2, ip, route intraperitoneal, read-out: GI
NCI-H460 [4] = assay: Antitumor activity against human H460 cells xenografted in nu/nu BALB/c mouse assessed as tumor growth inhibition at 5 mg/kg, ip qd for 24 days measured on day 25 relative to control; format: functional; conditions: route intraperitoneal, read-out: GI
NCI-H460 [5] = assay: Antitumor activity against human H460 cells xenografted in nu/nu BALB/c mouse assessed as tumor growth inhibition at 20 mg/kg, ip qd for 24 days measured on day 25 relative to control; format: functional; conditions: route intraperitoneal, read-out: GI
Mus musculus [6] = assay: Toxicity in human cancer cells xenografted in nu/nu BALB/c mouse assessed as side effects at 5 to 30 mg/kg, ip qd for 24 days; format: organism-based, Cancer cell lines; parameters: dose 5-30 mg/kg, route intraperitoneal; conditions: in vivo, 576 h
[7] = system: Lewis lung carcinoma cell line; assay: Antimetastatic activity against mouse LLC cells xenografted in C57BL/6 mouse assessed as inhibition of lung metastasis at 10 mg/kg, ip qd for 15 days relative to control; format: functional; conditions: 360 h, route intraperitoneal, read-out: GI
Mus musculus [8] = assay: Toxicity in mouse 4T1 cells xenografted […] mouse assessed as decrease in body weight at 2.5 to 10 mg/kg, ip qd for 28 days; format: organism-based; parameters: dose 2.5-10 mg/kg, route intraperitoneal; conditions: in vivo, 672 h
4T1 [9] = assay: Antitumor activity against mouse 4T1 cells xenografted in […] mouse assessed as tumor growth inhibition at 10 mg/kg, ip qd for 28 days relative to control; format: functional; conditions: 4T1, ip, 672 h, route intraperitoneal, read-out: GI
4T1 [10] = assay: Antimetastatic activity against mouse 4T1 cells xenografted in […] mouse assessed as inhibition of lung metastasis at 2.5 to 10 mg/kg, ip qd for 28 days; format: functional, organism-based
HCT-8 = assay: Cytotoxicity against human HCT8 cells after 72 hrs by MTT assay; format: functional, cell-based
A-431 = assay: Cytotoxicity against human A431 cells after 72 hrs by MTT assay; format: functional, cell-based
KB = assay: Cytotoxicity against human KB cells after 72 hrs by MTT assay; format: functional, cell-based
KETR3 = assay: Cytotoxicity against human Ketr3 cells after 72 hrs by MTT assay; format: functional, cell-based
PC-3M = assay: Cytotoxicity against human PC3M cells after 72 hrs by MTT assay; format: functional, cell-based
BGC-823 = assay: Cytotoxicity against human BGC823 cells after 72 hrs by MTT assay; format: functional, cell-based
CCRF-CEM = assay: Growth inhibition of human CCRF-CEM cells after 48 hrs by sulforhodamine B assay; format: functional
HL-60(TB) = assay: Growth inhibition of human HL-60(TB) cells after 48 hrs by sulforhodamine B assay; format: functional; conditions: HL-60, 48 h
MOLT-4 = assay: Growth inhibition of human MOLT4 cells after 48 hrs by sulforhodamine B assay; format: functional; conditions: MOLT-4, 48 h
HOP-92 = assay: Growth inhibition of human HOP92 cells after 48 hrs by sulforhodamine B assay; format: functional; conditions: HOP-92, 48 h
NCI-H23 = assay: Growth inhibition of human NCI-H23 cells after 48 hrs by sulforhodamine B assay; format: functional; conditions: NCI-H23, 48 h
NCI-H322M = assay: Growth inhibition of human NCI-H322M cells after 48 hrs by sulforhodamine B assay; format: functional
HCT-116 = assay: Growth inhibition of human HCT116 cells after 48 hrs by sulforhodamine B assay; format: functional; conditions: HCT-116, 48 h
HCT-15 = assay: Growth inhibition of human HCT15 cells after 48 hrs by sulforhodamine B assay; format: functional; conditions: HCT-15, 48 h
HT-29 = assay: Growth inhibition of human HT-29 cells after 48 hrs by sulforhodamine B assay; format: functional; conditions: HT-29, 48 h
KM12 = assay: Growth inhibition of human KM12 cells after 48 hrs by sulforhodamine B assay; format: functional; conditions: KM12, 48 h
SNB-75 = assay: Growth inhibition of human SNB75 cells after 48 hrs by sulforhodamine B assay; format: functional; conditions: SNB-75, 48 h
U-251 = assay: Growth inhibition of human U251 cells after 48 hrs by sulforhodamine B assay; format: functional; conditions: U-251, 48 h
M14 = assay: Growth inhibition of human M14 cells after 48 hrs by sulforhodamine B assay; format: functional; conditions: M14, 48 h
Malme-3M = assay: Growth inhibition of human MALME-3M cells after 48 hrs by sulforhodamine B assay; format: functional
SK-MEL-28 = assay: Growth inhibition of human SK-MEL-28 cells after 48 hrs by sulforhodamine B assay; format: functional; conditions: SK-MEL-28, 48 h
SK-MEL-5 = assay: Growth inhibition of human SK-MEL-5 cells after 48 hrs by sulforhodamine B assay; format: functional; conditions: SK-MEL-5, 48 h
UACC-257 = assay: Growth inhibition of human UACC257 cells after 48 hrs by sulforhodamine B assay; format: functional; conditions: UACC-257, 48 h
IGROV-1 = assay: Growth inhibition of human IGROV1 cells after 48 hrs by sulforhodamine B assay; format: functional; conditions: IGROV-1, 48 h
OVCAR-3 = assay: Growth inhibition of human OVCAR3 cells after 48 hrs by sulforhodamine B assay; format: functional; conditions: OVCAR-3, 48 h
OVCAR-4 = assay: Growth inhibition of human OVCAR4 cells after 48 hrs by sulforhodamine B assay; format: functional; conditions: OVCAR-4, 48 h
OVCAR-5 = assay: Growth inhibition of human OVCAR5 cells after 48 hrs by sulforhodamine B assay; format: functional; conditions: OVCAR-5, 48 h
OVCAR-8 = assay: Growth inhibition of human OVCAR8 cells after 48 hrs by sulforhodamine B assay; format: functional; conditions: OVCAR-8, 48 h
786-0 = assay: Growth inhibition of human 786-0 cells after 48 hrs by sulforhodamine B assay; format: functional; conditions: 786-0, 48 h
ACHN = assay: Growth inhibition of human ACHN cells after 48 hrs by sulforhodamine B assay; format: functional
CAKI-1 = assay: Growth inhibition of human Caki1 cells after 48 hrs by sulforhodamine B assay; format: functional; conditions: CAKI-1, 48 h
SN12C = assay: Growth inhibition of human SN12C cells after 48 hrs by sulforhodamine B assay; format: functional
DU-145 = assay: Growth inhibition of human DU145 cells after 48 hrs by sulforhodamine B assay; format: functional; conditions: DU-145, 48 h
MCF7 = assay: Growth inhibition of human MCF7 cells after 48 hrs by sulforhodamine B assay; format: functional; conditions: MCF7, 48 h
BT-549 = assay: Growth inhibition of human BT549 cells after 48 hrs by sulforhodamine B assay; format: functional; conditions: BT-549, 48 h

CC(=O)O[C@H]1C(=O)[C@@]2(C)[C@H]([C@H](OC(=O)c3ccccc3)[C@]3(O)C[C@H](OC(=O)[C@H](OC(=O)CCC(=O)NCCCC[C@H](NC(=O)CC[C@H](NC(=O)[C@H](C)NC(=O)/C=C/c4ccc(Cl)cc4)C(N)=O)C(N)=O)[C@H](NC(=O)c4ccccc4)c4ccccc4)C(C)=C1C3(C)C)[C@]1(OC(C)=O)CO[C@@H]1C[C@@H]2O
inhibition in vivo at 20 mg/kg (MDA-MB-231 [1]): 72.2% | inhibition in vivo at 30 mg/kg (MDA-MB-231 [2]): 87% | inhibition in vivo at 30 mg/kg [3]: 36.4% | inhibition in vivo at 5 mg/kg (NCI-H460 [4]): 2.15% | inhibition in vivo at 20 mg/kg (NCI-H460 [5]): 52.9% | Activity (Mus musculus [6]): Non-toxic | inhibition in vivo at 10 mg/kg [7]: 47.4% | Activity (Mus musculus [8]): Non-toxic | inhibition in vivo at 10 mg/kg (4T1 [9]): 45.9% | growth inhibition (GI) (4T1 [10]): Active | Activity (HCT-8): Active | Activity (A-431): Active | Activity (KB): Active | Activity (KETR3): Active | Activity (PC-3M): Active | Activity (BGC-823): Active | GI50 (CCRF-CEM): < 10 nM | GI50 (HL-60(TB)): < 10 nM | GI50 (MOLT-4): < 10 nM | GI50 (HOP-92): < 10 nM | GI50 (NCI-H23): < 10 nM | GI50 (NCI-H322M): < 10 nM | GI50 (HCT-116): < 10 nM | GI50 (HCT-15): < 10 nM | GI50 (HT-29): < 10 nM | GI50 (KM12): < 10 nM | GI50 (SNB-75): < 10 nM | GI50 (U-251): < 10 nM | GI50 (M14): < 10 nM | GI50 (Malme-3M): < 10 nM | GI50 (SK-MEL-28): < 10 nM | GI50 (SK-MEL-5): < 10 nM | GI50 (UACC-257): < 10 nM | GI50 (IGROV-1): < 10 nM | GI50 (OVCAR-3): < 10 nM | GI50 (OVCAR-4): < 10 nM | GI50 (OVCAR-5): < 10 nM | GI50 (OVCAR-8): < 10 nM | GI50 (786-0): < 10 nM | GI50 (ACHN): < 10 nM | GI50 (CAKI-1): < 10 nM | GI50 (SN12C): < 10 nM | GI50 (DU-145): < 10 nM | GI50 (MCF7): < 10 nM | GI50 (BT-549): < 10 nM
